Data: ChEMBL document CHEMBL5244218, “Quinolone derivatives and their activities against methicillin-resistant Staphylococcus aureus (MRSA)” (Eur J Med Chem, 2018)
Values after ≈ are worked out from the molar mass of the structure shown.

Assays:
Assay type in all cases: functional
Staphylococcus aureus [1] = assay: Antimicrobial activity against methicillin-resistant Staphylococcus aureus assessed as inhibition of microbial growth
Staphylococcus aureus [2] = assay: Antimicrobial activity against methicillin-resistant Staphylococcus aureus incubated for 18 hrs by Agar dilution method
Staphylococcus aureus [3] = assay: Antimicrobial activity against methicillin-resistant Staphylococcus aureus incubated for 18 hrs by Alamar blue staining based analysis

| Structure (SMILES) | MIC (Staphylococcus aureus [1]) [µg/mL] | MIC (Staphylococcus aureus [2]) [µg/mL] | also measured |
| --- | --- | --- | --- |
| COc1ccc(C2=CN3c4c(c(=O)c(C(=O)O)cn4C4CC4)C=C(F)C3N=N2)cc1 (stereo not given) | 0.25 | – | – |
| CC(=O)c1c(N2Cc3n[nH]c(N)c3C2)c(F)cc2c(=O)c(C(=O)O)cn(C3CC3)c12 | – | 0.125 (≈ 0.304 µM) | – |
| COc1c(N2CC/C(=N/Oc3ccc(C)c(C)c3)C(N)C2)c(F)cc2c(=O)c(C(=O)O)cn(C3CC3)c12 (stereo not given) | – | – | MIC (Staphylococcus aureus [3]): 8 ng/mL (≈ 0.0157 µM) |
| COc1c(N2CC/C(=N/Oc3ccc(F)cc3)C(N)C2)c(F)cc2c(=O)c(C(=O)O)cn(C3CC3)c12 (stereo not given) | – | – | MIC (Staphylococcus aureus [3]): 8 ng/mL (≈ 0.016 µM) |
| CC(=O)c1c(N2Cc3nn(C)c(N)c3C2)c(F)cc2c(=O)c(C(=O)O)cn(C3CC3)c12 | – | 0.125 (≈ 0.294 µM) | – |
| Nc1[nH]nc2c1CN(c1nc3c(cc1F)c(=O)c(C(=O)O)cn3-c1ccc(F)cc1F)C2 | – | 0.125 (≈ 0.283 µM) | – |
| Cn1nc2c(c1N)CN(c1nc3c(cc1F)c(=O)c(C(=O)O)cn3-c1ccc(F)cc1F)C2 | – | 0.125 (≈ 0.274 µM) | – |
| COc1ccccc1O/N=C1/CCN(c2c(F)cc3c(=O)c(C(=O)O)cn(C4CC4)c3c2OC)CC1N (stereo not given) | – | – | MIC (Staphylococcus aureus [3]): 8 ng/mL (≈ 0.0157 µM) |
| Nc1[nH]nc2c1CN(c1c(F)cc3c(=O)c(C(=O)O)cn(CCF)c3c1F)C2 | – | 0.125 (≈ 0.318 µM) | – |
| O=C(O)c1cn(C2CC2)c2c(c1=O)C=C(F)C1N=NC(c3ccc(Br)cc3)=CN21 (stereo not given) | 0.25 | – | – |
| COc1cc(Br)ccc1O/N=C1/CCN(c2c(F)cc3c(=O)c(C(=O)O)cn(C4CC4)c3c2OC)CC1N (stereo not given) | – | – | MIC (Staphylococcus aureus [3]): 8 ng/mL (≈ 0.0136 µM) |
| Cc1ccccc1C1=CN2c3c(c(=O)c(C(=O)O)cn3C3CC3)C=C(F)C2N=N1 (stereo not given) | 0.25 | – | – |
| COc1ccc(OC)c(O/N=C2/CCN(c3c(F)cc4c(=O)c(C(=O)O)cn(C5CC5)c4c3OC)CC2N)c1 (stereo not given) | – | – | MIC (Staphylococcus aureus [3]): 8 ng/mL (≈ 0.0148 µM) |
| O=C(O)c1c[nH]c2cc(N3CCN([C@@H]4O[C@H](CO)[C@@H](O)[C@H](O)[C@H]4O)CC3)c(F)cc2c1=O | 0.5 | – | – |
| O=C(O)c1c[nH]c2cc(N3CCN([C@@H]4O[C@H](CO)[C@H](O)[C@H](O)[C@H]4O)CC3)c(F)cc2c1=O | 0.5 | – | – |
| Nc1[nH]nc2c1CN(c1c(F)cc3c(=O)c(C(=O)O)cn(C4CC4)c3c1F)C2 | – | 0.125 (≈ 0.323 µM) | – |
| Cn1nc2c(c1N)CN(c1nc3c(cc1F)c(=O)c(C(=O)O)cn3C1CC1)C2 | – | 0.125 (≈ 0.325 µM) | – |
| O=C(O)c1cn(C2CC2)c2c(c1=O)C=C(F)C1N=NC(c3ccc(O)cc3)=CN21 (stereo not given) | 0.25 | – | – |

| Structure (SMILES) | MIC (Staphylococcus aureus [1]) [µg/mL] | MIC (Staphylococcus aureus [2]) [µg/mL] | also measured |
| --- | --- | --- | --- |
| O=C(O)c1cn(C2CC2)c2c(c1=O)C=C(F)C1N=NC(c3cccc(Cl)c3)=CN21 (stereo not given) | 0.25 | – | – |
| O=C(O)c1cn(C2CC2)c2c(c1=O)C=C(F)C1N=NC(c3cccc([N+](=O)[O-])c3)=CN21 (stereo not given) | 0.25 | – | – |
| Cn1nc2c(c1N)CN(c1c(F)cc3c(=O)c(C(=O)O)cn(C4CC4)c3c1C(=O)C(F)F)C2 | – | 0.125 (≈ 0.271 µM) | – |
| COc1ccc(C2=CN3c4c(c(=O)c(C(=O)O)cn4C4CC4)C=C(F)C3N=N2)cc1OC (stereo not given) | 0.25 | – | – |
| Nc1cccc(C2=CN3c4c(c(=O)c(C(=O)O)cn4C4CC4)C=C(F)C3N=N2)c1 (stereo not given) | 0.25 | – | – |
| O=C(O)c1cn(C2CC2)c2c(c1=O)C=C(F)C1N=NC(c3ccc([N+](=O)[O-])cc3)=CN21 (stereo not given) | 0.25 | – | – |
| CCn1cc(C(=O)O)c(=O)c2cc(F)c(N3Cc4n[nH]c(N)c4C3)c(F)c21 | – | 0.125 (≈ 0.333 µM) | – |
| Cn1nc2c(c1N)CN(c1c(F)cc3c(=O)c(C(=O)O)cn(CCF)c3c1F)C2 | – | 0.125 (≈ 0.307 µM) | – |
| O=C(O)c1cn(C2CC2)c2c(c1=O)C=C(F)C1N=NC(c3ccc(Cl)cc3)=CN21 (stereo not given) | 0.25 | – | – |
| COc1ccccc1C1=CN2c3c(c(=O)c(C(=O)O)cn3C3CC3)C=C(F)C2N=N1 (stereo not given) | 0.25 | – | – |
| Nc1[nH]nc2c1CN(c1c(F)cc3c(=O)c(C(=O)O)cn(C4CC4)c3c1C(=O)C(F)F)C2 | – | 0.125 (≈ 0.279 µM) | – |
| COc1c(N2C[C@@H]3CCCN[C@@H]3C2)c(F)cc2c(=O)c(C(=O)O)cn(C3CC3)c12 [MOXIFLOXACIN] | – | 0.06 (≈ 0.149 µM) | – |
| CCn1cc(C(=O)O)c(=O)c2cc(F)c(N3Cc4nn(C)c(N)c4C3)c(F)c21 | – | 0.125 (≈ 0.321 µM) | – |
| Cn1nc2c(c1N)CN(c1c(F)cc3c(=O)c(C(=O)O)cn(C4CC4)c3c1F)C2 | – | 0.125 (≈ 0.311 µM) | – |
| Nc1[nH]nc2c1CN(c1nc3c(cc1F)c(=O)c(C(=O)O)cn3C1CC1)C2 | – | 0.125 (≈ 0.338 µM) | – |
| Cc1ccc(C2=CN3c4c(c(=O)c(C(=O)O)cn4C4CC4)C=C(F)C3N=N2)cc1 (stereo not given) | 0.25 | – | – |
| Nc1ccc(C2=CN3c4c(c(=O)c(C(=O)O)cn4C4CC4)C=C(F)C3N=N2)cc1 (stereo not given) | 0.25 | – | – |
